Data as given in patent US11578071B2, “Preparation of pyrazolo[3,4-B]pyridines as antimalarials” (University of Kentucky Research Foundation, priority 2019, dated 2023).

Columns and labels:
[1] = tested on: P. falciparum 3D7 gametocytes; assay: Gametocyte EC50 determination; format: cell-based; details: Plasmodium falciparum
Procedure: Asexual cultures of P. falciparum 3D7 parasites were used to seed gametocyte cultures at 1% parasitemia and 4% hematocrit as previously described. Culture medium (RPMI medium with 25 mM HEPES, 50 mg/L hypoxanthine, 2 g/L sodium bicarbonate and 10% human serum) was replaced daily for at least 14 day with all solutions, pipettes and work surfaces treated at 37° C. Typical cultures follow the pattern of asexual parasitemia rising to a peak and crashing at days 4-5, with stage II gametocytes visible at day 7, stage III visible at day 9, stage IV visible at day 11, and stage V visible at day 14 with high levels of exflagellation.
To determine EC50 values, the number of exflagellation centers per field, mean oocyst intensity and prevalence of infection were normalized to the respective DMSO treated control and % inhibition calculated. Tested compounds were prepared as a DMSO solutions from 25 μM to 0.026 μM across 22 points. Percentage inhibition data obtained from each individual parameter was fitted to a four-parameter logistic equation with variable slope using GraphPad Prism 6.07 for which compound concentrations were first transformed to their respective log10 values. The data were then fitted using these transformed values without defining constraints.

[2] = tested on: P. berghei luciferase sporozoites in HepG2-A16-CD81EGFP cells; assay: Plasmodium Berghei Luciferase Liver Stage Bioluminescence Assay; format: cell-based; details: in words
HepG2-A16-CD81EGFP cells = assay: HepG2 Cytotoxicity Bioluminescence Assay; format: cell-based; details: Homo sapiens, 48 h, mean ± SD of two measurements
[3] = tested on: erythrocytes infected with the 3D7 strain; assay: FACS Killing Rate Assay; format: cell-based, Plasmodium falciparum; set-up: % Survival at 0 h: concentration or dose not given beside the values; details: for % Survival (24 h) / % Survival (48 h) / % Survival at 0 h: 3D7; for % Survival (24 h): 24 h treatment at 10× IC50; for % Survival (24 h) / % Survival (48 h): mean ± SD of two measurements; for % Survival (48 h): 48 h treatment at 10× IC50; for % Survival at 0 h: treatment time 0 h; for killing profile: in words, compared with chloroquine, pyrimethamine, atovaquone, artesunate
Procedure: After treatment, the compound is removed and the culture is diluted (⅓^rd dilution) using fresh erythrocytes (2% hematocrit) previously labeled with CFDA-SE (carboxylfluorescein diacetate succinimidyl ester, Life Technologies). […] Samples were analyzed using the Attune N×T software package.

melting point	Compound	% Survival at 0 h [3]	other results
165 to 166 °C	Cc1nn(-c2ccccc2)c2nc(-c3ccc(C#N)cc3)c(C#N)c(-c3ccccc3O)c12 [Compound 34, 6-(4-cyanophenyl)-4-(2-hydroxyphenyl)-3-methyl-1-phenyl-1H-pyrazolo[3,4-b]pyridine-5-carbonitrile]	–	–
289 to 291 °C	Cc1nn(-c2ccccc2)c2nc(-c3ccc(I)cc3)c(C#N)c(-c3ccccc3O)c12 [Compound 33, 4-(2-hydroxyphenyl)-6-(4-iodophenyl)-3-methyl-1-phenyl-1H-pyrazolo[3,4-b]pyridine-5-carbonitrile]	–	–
254 to 256 °C	Cc1nn(-c2ccccc2)c2nc(-c3ccc(C(F)(F)F)cc3)c(C#N)c(-c3ccccc3O)c12 [Compound 30, 4-(2-hydroxyphenyl)-3-methyl-1-phenyl-6-[4-(trifluoromethyl)phenyl]-1H-pyrazolo[3,4-b]pyridine-5-carbonitrile]	–	–
281 to 282 °C	Cc1nn(-c2ccccc2)c2nc(-c3ccc(Cl)cc3)c(C#N)c(-c3ccccc3O)c12 [Compound 32, 6-(4-chlorophenyl)-4-(2-hydroxyphenyl)-3-methyl-1-phenyl-1H-pyrazolo[3,4-b]pyridine-5-carbonitrile]	–	–
257 to 258 °C	Cc1nn(-c2ccccc2)c2nc(-c3ccc([N+](=O)[O-])cc3)c(C#N)c(-c3ccccc3O)c12 [Compound 35, 4-(2-hydroxyphenyl)-3-methyl-6-(4-nitrophenyl)-1-phenyl-1H-pyrazolo[3,4-b]pyridine-5-carbonitrile]	–	–
234 to 236 °C	Cc1nn(-c2ccccc2)c2nc(-c3ccc(F)cc3)c(C#N)c(-c3ccccc3O)c12 [Compound 31, 6-(4-fluorophenyl)-4-(2-hydroxyphenyl)-3-methyl-1-phenyl-1H-pyrazolo[3,4-b]pyridine-5-carbonitrile]	–	–

Further lines, the compound ahead of its results:

Compound	melting point	% Survival at 0 h [3]	other results
CCc1ccc(-c2nc3c(c(C)nn3-c3ccccc3)c(-c3ccccc3OC(F)(F)F)c2C#N)cc1 [Compound 17, 6-(4-Ethylphenyl)-3-methyl-1-phenyl-4-[2-(trifluoromethoxy)phenyl]-1H-pyrazolo[3,4-b]pyridine-5-carbonitrile]	–	–	EC50 [1]: > 25 µM; potency against the liver stage of the parasite [2]: sub-micromolar potency; EC50 (HepG2-A16-CD81EGFP cells): > 25 µM
CCc1ccc(-c2nc3c(c(C)nn3-c3ccccc3)c(-c3ccccc3OC)c2C#N)cc1 [Compound 16, 6-(4-Ethylphenyl)-4-(2-methoxyphenyl)-3-methyl-1-phenyl-1H-pyrazolo[3,4-b]pyridine-5-carbonitrile]	196 to 198 °C	–	–
O=C1C(O)=C([C@H]2CC[C@H](c3ccc(Cl)cc3)CC2)C(=O)c2ccccc21 [Atovaquone]	–	100%	% Survival (24 h) [3]: 78.96 ± 3.89%; % Survival (48 h) [3]: 39.89 ± 4.37%
C[C@H]1[C@H](OC(=O)CCC(=O)O)O[C@@H]2O[C@@]3(C)CC[C@H]4[C@H](C)CC[C@@H]1[C@@]24OO3 [Artesunate]	–	100%	% Survival (24 h) [3]: 17.50 ± 3.68%; % Survival (48 h) [3]: 6.44 ± 0.51%
CCc1ccc(-c2nc3c(c(C)nn3-c3ccccc3)c(-c3ccccc3Cl)c2C#N)cc1 [Compound 10, 4-(2-Chlorophenyl)-6-(4-ethylphenyl)-3-methyl-1-phenyl-1H-pyrazolo[3,4-b]pyridine-5-carbonitrile]	–	100%	EC50 [1]: > 25 µM; potency against the liver stage of the parasite [2]: sub-micromolar potency; EC50 (HepG2-A16-CD81EGFP cells): > 50 µM; killing profile [3]: slow killing profile
CCc1ccc(-c2nc3c(c(C)nn3-c3ccccc3)c(-c3ccccc3Br)c2C#N)cc1 [Compound 9, 4-(2-Bromophenyl)-6-(4-ethylphenyl)-3-methyl-1-phenyl-1H-pyrazolo[3,4-b]pyridine-5-carbonitrile]	208 to 209 °C	–	–
CCc1ccc(-c2nc3c(c(C)nn3-c3ccccc3)c(-c3ccccc3I)c2C#N)cc1 [Compound 8, 6-(4-Ethylphenyl)-4-(2-iodophenyl)-3-methyl-1-phenyl-1H-pyrazolo[3,4-b]pyridine-5-carbonitrile]	205 to 207 °C	–	–
CCc1nc(N)nc(N)c1-c1ccc(Cl)cc1 [Pyrimethamine]	–	100%	% Survival (24 h) [3]: 56.37 ± 2.55%; % Survival (48 h) [3]: 16.02 ± 4.36%
CCN(CC)CCCC(C)Nc1ccnc2cc(Cl)ccc12 (stereo not drawn) [Chloroquine]	–	100%	% Survival (24 h) [3]: 18.69 ± 7.34%; % Survival (48 h) [3]: 9.21 ± 2.08%
CCc1ccc(-c2nc3c(c(C)nn3-c3ccccc3)c(-c3ccccc3C)c2C#N)cc1 [Compound 12, 6-(4-Ethylphenyl)-3-methyl-4-(2-methylphenyl)-1-phenyl-1H-pyrazolo[3,4-b]pyridine-5-carbonitrile]	203 to 204 °C	–	–
Cc1nn(-c2ccccc2)c2nc(-c3ccc(C(C)(C)C)cc3)c(C#N)c(-c3ccccc3O)c12 [Compound 27, 6-(4-tert-butylphenyl)-4-(2-hydroxyphenyl)-3-methyl-1-phenyl-1H-pyrazolo[3,4-b]pyridine-5-carbonitrile]	–	100%	EC50 [1]: > 25 µM; killing profile [3]: moderate killing profile
CCc1ccc(-c2nc3c(c(C)nn3-c3ccccc3)c(-c3ccccc3F)c2C#N)cc1 [Compound 11, 6-(4-Ethylphenyl)-4-(2-fluorophenyl)-3-methyl-1-phenyl-1H-pyrazolo[3,4-b]pyridine-5-carbonitrile]	197 to 199 °C	–	–
CCc1ccc(-c2nc3c(c(C)nn3-c3ccccc3)c(-c3ccccc3C(F)(F)F)c2C#N)cc1 [Compound 15, 6-(4-Ethylphenyl)-3-methyl-1-phenyl-4-[2-(trifluoromethyl)phenyl]-1H-pyrazolo[3,4-b]pyridine-5-carbonitrile]	193 to 195 °C	–	–
CCc1ccc(-c2nc3c(c(C)nn3-c3ccccc3)c(-c3ccccc3C#N)c2C#N)cc1 [Compound 7, 4-(2-Cyanophenyl)-6-(4-ethylphenyl)-3-methyl-1-phenyl-1H-pyrazolo[3,4-b]pyridine-5-carbonitrile]	201 to 203 °C	–	–
